From the supplement of paper PMC11451515

Test system: SEM cells
Assay: cell viability relative to DMSO control; higher = less cytotoxic
Settings: 48 h
Summary of the method: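 NOMO1, SEM and P12-Ichikawa leukemia cells spent at least four passages adapting to each medium before use. They were seeded at 500 cells/well (NOMO1, SEM) or 1000 cells/well (P12-Ichikawa) in 5 μl in 1536-well plates and pin-dosed with library compounds in DMSO at 11 threefold steps from 47 μM down to 0.79 nM. After 48 h at 37°C, CellTiter-Glo One luminescence was read. Viability is reported as a percentage of the DMSO wells on each plate, with cell-free wells as background.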

[1] = HPLM + 10% dialyzed FBS, 0.000781 µM
[2] = HPLM + 10% dialyzed FBS, 0.00234 µM
[3] = HPLM + 10% dialyzed FBS, 0.00702 µM
[4] = HPLM + 10% dialyzed FBS, 0.0211 µM
[5] = HPLM + 10% dialyzed FBS, 0.0632 µM
[6] = HPLM + 10% dialyzed FBS, 0.19 µM
[7] = HPLM + 10% dialyzed FBS, 0.569 µM
[8] = HPLM + 10% dialyzed FBS, 1.71 µM
[9] = HPLM + 10% dialyzed FBS, 5.12 µM
[10] = HPLM + 10% dialyzed FBS, 15.4 µM
[11] = HPLM + 10% dialyzed FBS, 46.1 µM
[12] = RPMI 5 mM glucose + 10% FBS, 0.000781 µM
[13] = RPMI 5 mM glucose + 10% FBS, 0.00234 µM
[14] = RPMI 5 mM glucose + 10% FBS, 0.00702 µM
[15] = RPMI 5 mM glucose + 10% FBS, 0.0211 µM
[16] = RPMI 5 mM glucose + 10% FBS, 0.0632 µM
[17] = RPMI 5 mM glucose + 10% FBS, 0.19 µM
[18] = RPMI 5 mM glucose + 10% FBS, 0.569 µM
[19] = RPMI 5 mM glucose + 10% FBS, 1.71 µM
[20] = RPMI 5 mM glucose + 10% FBS, 5.12 µM
[21] = RPMI 5 mM glucose + 10% FBS, 15.4 µM
[22] = RPMI 5 mM glucose + 10% FBS, 46.1 µM
[23] = RPMI 5 mM glucose + 10% dialyzed FBS, 0.000781 µM
[24] = RPMI 5 mM glucose + 10% dialyzed FBS, 0.00234 µM
[25] = RPMI 5 mM glucose + 10% dialyzed FBS, 0.00702 µM
[26] = RPMI 5 mM glucose + 10% dialyzed FBS, 0.0211 µM
[27] = RPMI 5 mM glucose + 10% dialyzed FBS, 0.0632 µM
[28] = RPMI 5 mM glucose + 10% dialyzed FBS, 0.19 µM
[29] = RPMI 5 mM glucose + 10% dialyzed FBS, 0.569 µM
[30] = RPMI 5 mM glucose + 10% dialyzed FBS, 1.71 µM
[31] = RPMI 5 mM glucose + 10% dialyzed FBS, 5.12 µM
[32] = RPMI 5 mM glucose + 10% dialyzed FBS, 15.4 µM
[33] = RPMI 5 mM glucose + 10% dialyzed FBS, 46.1 µM

Structure (SMILES) | cell viability [1] | cell viability [2] | cell viability [3] | cell viability [4] | cell viability [5] | cell viability [6] | cell viability [7] | cell viability [8] | cell viability [9] | cell viability [10] | cell viability [11] | cell viability [12] | cell viability [13] | cell viability [14] | cell viability [15] | cell viability [16] | cell viability [17] | cell viability [18] | cell viability [19] | cell viability [20] | cell viability [21] | cell viability [22] | cell viability [23] | cell viability [24] | cell viability [25] | cell viability [26] | cell viability [27] | cell viability [28] | cell viability [29] | cell viability [30] | cell viability [31] | cell viability [32] | cell viability [33]
ClC1=CC\2=C(NC(=O)\C(=C2N[C@@H]3CN4CCC3CC4)C5=NC6=C([NH]5)C=CC=C6)C=C1 | 116% | 98.7% | 102% | 89.2% | 53.3% | 27.7% | 24.2% | 21% | 8.58% | 3.33% | 5.63% | 95.8% | 87.5% | 83.9% | 71% | 67.4% | 22.8% | 16.2% | 11.2% | 6.87% | 2.16% | 2.19% | 99.5% | 108% | 98% | 86.8% | 63.2% | 25.4% | 19.1% | 15% | 8.88% | 2.81% | 3.39%
CC(C)c1cc(C(=O)N2Cc3ccc(CN4CCN(C)CC4)cc3C2)c(O)cc1O |  |  |  |  |  |  |  |  |  |  |  | 104% | 105% | 107% | 17.8% | 112% | 107% | 31.1% | 23.5% | 21.5% | 23.1% | 18.3% | 125% | 120% | 120% | 20.5% | 106% | 99.9% | 47.2% | 32.4% | 29.8% | 28.8% | 25.9%
CN1\C(=C(\O)C2=C(C=CC=C2)[S+]1([O-])=O)C(=O)NC3=CC=CC=N3 | 92.2% | 81.9% | 96.9% | 75% | 91.9% | 114% | 7.98% | 67.2% | 112% | 63.3% | 64.9% | 90% | 95% | 97.8% | 107% | 106% | 117% | 6.64% | 54.8% | 93.2% | 54.9% | 56.6% | 98.4% | 86.6% | 112% | 107% | 123% | 109% | 8.39% | 51.8% | 96.6% | 59.8% | 74.5%
COC1=CC=C(C=C1O)C/2=C/C(=O)C3=C(O2)C=C(O)C=C3O | 98% | 89.5% | 85.9% | 95.2% | 98.4% | 97.9% | 92.4% | 93.7% | 79.6% | 65.7% | 60.6% | 103% | 95.4% | 113% | 94.3% | 106% | 113% | 110% | 113% | 94.8% | 87.9% | 63.7% | 97.6% | 94.8% | 105% | 104% | 102% | 87.7% | 111% | 119% | 101% | 81.3% | 56.8%
COc1cc2c(Nc3ccc(Br)cc3F)ncnc2cc1OCC1CCN(C)CC1 | 45.3% | 81.6% | 94.3% | 69.3% | 71.4% | 76.8% | 72.2% | 65% | 79.4% | 31% | 66.2% | 67.3% | 124% | 111% | 112% | 118% | 110% | 84.2% | 88.7% | 98.1% | 58.9% | 74.1% | 40% | 83.4% | 91% | 89.2% | 63.7% | 80.7% | 81.7% | 63.2% | 79.1% | 42.5% | 63.5%
CC(C)C[C@H](NC(=O)CNC(=O)c1cc(Cl)ccc1Cl)B(O)O | 86.3% | 77.4% | 109% | 19.6% | 107% | 12.5% | 7.52% | 6.82% | 6.78% | 4.58% | 3.36% | 88.4% | 85.9% | 103% | 15.2% | 113% | 11.4% | 7.76% | 5.7% | 4.81% | 3.3% | 2.05% | 83.2% | 68.2% | 90.6% | 16.8% | 107% | 17.6% | 7.97% | 6.58% | 5.53% | 4.01% | 2.9%
COc1cc2nc(-c3cc(F)ccc3O)nc(N[C@@H]3CNC[C@H]3C(C)(C)O)c2cc1OC | 57.3% | 96.4% | 90.5% | 97.4% | 89.5% | 59.6% | 45.6% | 37.2% | 28.3% | 16.1% | 7.01% | 59.9% | 101% | 99.6% | 94.6% | 90.4% | 62.3% | 54.6% | 35.7% | 25.6% | 14.5% | 5.78% | 46.9% | 94.4% | 80.5% | 86.5% | 64% | 45.2% | 34.6% | 30.6% | 15.8% | 14.3% | 6.75%
C[C@H]1[C@@H](C(=O)C[C@H]2O[C@@H]3O[C@]4(C)CC[C@H]5[C@H](C)CC[C@@H]([C@H]2C)[C@@]35OO4)O[C@@H]2O[C@]3(C)CC[C@H]4[C@H](C)CC[C@@H]1[C@@]24OO3 | 92.6% | 106% | 95.1% | 83.9% | 102% | 84.1% | 84.6% | 91.5% | 89% | 75.4% | 6.82% | 87.2% | 112% | 116% | 109% | 113% | 107% | 105% | 96.8% | 72.1% | 53.1% | 5.74% | 96.3% | 114% | 115% | 99.7% | 113% | 109% | 116% | 96.9% | 92.9% | 75% | 7.69%
COC/1=C/C=C2\C(=C/C1=O)[C@H](CCC3=CC(=C(OC)C(=C23)OC)OC)NC(C)=O | 32.1% | 25.8% | 26.1% | 23.7% | 18.7% | 14.5% | 11% | 11.5% | 10.1% | 10% | 3.47% | 19% | 19.2% | 15.9% | 15.9% | 12.3% | 8.3% | 5.66% | 6.98% | 5.01% | 4.81% | 2.96% | 20.9% | 20.5% | 21.6% | 21.8% | 10.7% | 8.08% | 7.02% | 5.24% | 4.72% | 4.63% | 2.48%
O=C(Nc1ncc(SCCN2CCCC2)s1)[C@]1(c2ccc([S+](=O)([O-])C3CC3)cc2)C[C@H]1C1CCCCC1 | 131% | 111% | 120% | 124% | 111% | 108% | 109% | 63.2% | 98.9% | 73.9% | 27.5% | 113% | 117% | 126% | 123% | 120% | 126% | 115% | 71.2% | 123% | 114% | 41.8% | 129% | 106% | 120% | 118% | 117% | 117% | 138% | 51.5% | 110% | 105% | 52.5%
COCCOc1nc(-c2ccc(Cl)c(Cl)c2)n(-c2ccc(NC(=O)CCl)cc2)n1 | 85.5% | 95.4% | 87.5% | 103% | 104% | 103% | 94.2% | 97.6% | 83.6% | 83.1% | 84.6% | 80% | 106% | 98.5% | 89.9% | 102% | 85.7% | 95.4% | 88% | 83.4% | 79.1% | 80.6% | 92.2% | 91.4% | 96.4% | 91% | 95.1% | 102% | 94.2% | 81.6% | 80.2% | 80.2% | 85.1%
CC[C@H](C)C(=O)O[C@H]1C[C@H](O)\C=C2\C=C/[C@H](C)[C@H](CC[C@@H](O)C[C@@H](O)CC(O)=O)[C@@H]12 | 118% | 114% | 116% | 111% | 125% | 129% | 121% | 126% | 103% | 106% | 92.9% | 98.7% | 110% | 121% | 124% | 113% | 126% | 107% | 118% | 95.8% | 108% | 102% | 123% | 109% | 121% | 125% | 129% | 109% | 121% | 110% | 119% | 120% | 86.2%
O=C(O)CCn1c2c(c3ccccc31)C[C@H](N[S+](=O)([O-])c1ccc(F)cc1)CC2 | 112% | 115% | 112% | 110% | 111% | 106% | 96.8% | 126% | 118% | 107% | 104% | 120% | 102% | 118% | 109% | 122% | 108% | 86.7% | 117% | 104% | 107% | 96.4% | 112% | 119% | 119% | 123% | 122% | 120% | 90.6% | 106% | 128% | 120% | 124%
COc1cccc([C@@H](C)NCCCc2ccccc2Cl)c1 | 88.5% | 90.3% | 95.2% | 105% | 106% | 95.8% | 81.8% | 97.6% | 107% | 96.3% | 101% | 82.6% | 100% | 79.9% | 100% | 94% | 94.9% | 84.2% | 78.7% | 97.4% | 100% | 93.5% | 81.2% | 112% | 92% | 101% | 94% | 114% | 97.2% | 95.1% | 98.6% | 108% | 99.6%
NC(=O)C1CCCc2c1[nH]c1ccc(Cl)cc21 (centres undefined) | 115% | 120% | 129% | 125% | 119% | 141% | 126% | 64.8% | 27.4% | 3.88% | 1.72% | 119% | 122% | 134% | 133% | 126% | 118% | 140% | 115% | 63.3% | 5.97% | 1.78% | 109% | 107% | 109% | 108% | 111% | 126% | 108% | 76.8% | 47.4% | 6.13% | 2.95%
